Source: PubChem BioAssay AID1259407 (Chemical Carcinogenesis Research Information System (CCRIS), 2018)
Activity calls are given as the source filed them. No rule for the calls is given here.

Test system: CCRIS mutagenicity, Ames/micronucleus/aberration tests
Experiment: CCRIS mutagenicity studies

In the case of C1O[C@@H]1[C@@H]1CO1, the mutagenic call (Test System: AMES SALMONELLA TYPHIMURIUM, Strain/Indicator: TA1535, Metabolic Activation: RAT, LIVER, S-9, Method: PREINCUBATION) is reported as “active; positive”, the mutagenic call (Test System: AMES SALMONELLA TYPHIMURIUM, Strain/Indicator: TA1535, Metabolic Activation: RAT, LIVER, S-9, Method: STANDARD PLATE) is reported as “active; positive” and the mutagenic call (Test System: AMES SALMONELLA TYPHIMURIUM, Strain/Indicator: TA1537, Metabolic Activation: HAMSTER, LIVER, S-9, AROCLOR 1254, Method: PREINCUBATION) is reported as “inactive; negative”. The mutagenic call (Test System: AMES SALMONELLA TYPHIMURIUM, Strain/Indicator: TA1537, Metabolic Activation: HAMSTER, LIVER, S-9, AROCLOR 1254, Method: STANDARD PLATE) was “inactive; negative”, the mutagenic call (Test System: AMES SALMONELLA TYPHIMURIUM, Strain/Indicator: TA1537, Metabolic Activation: HAMSTER, LIVER, S-9, Method: PREINCUBATION) was “inactive; negative” and the mutagenic call (Test System: AMES SALMONELLA TYPHIMURIUM, Strain/Indicator: TA1537, Metabolic Activation: HAMSTER, LIVER, S-9, Method: STANDARD PLATE) was “inactive; negative”. For the same compound, the mutagenic call (Test System: AMES SALMONELLA TYPHIMURIUM, Strain/Indicator: TA1537, Metabolic Activation: MOUSE, LIVER, S-9, AROCLOR 1254, Method: PREINCUBATION) was “inactive; negative”, the mutagenic call (Test System: AMES SALMONELLA TYPHIMURIUM, Strain/Indicator: TA1537, Metabolic Activation: MOUSE, LIVER, S-9, AROCLOR 1254, Method: STANDARD PLATE) was “inactive; negative” and the mutagenic call (Test System: AMES SALMONELLA TYPHIMURIUM, Strain/Indicator: TA1537, Metabolic Activation: MOUSE, LIVER, S-9, Method: PREINCUBATION) was “inactive; negative”. The mutagenic call (Test System: AMES SALMONELLA TYPHIMURIUM, Strain/Indicator: TA1537, Metabolic Activation: MOUSE, LIVER, S-9, Method: STANDARD PLATE) was “inactive; negative”, the mutagenic call (Test System: AMES SALMONELLA TYPHIMURIUM, Strain/Indicator: TA1537, Metabolic Activation: NONE, Method: PREINCUBATION) was “inactive; negative” and the mutagenic call (Test System: AMES SALMONELLA TYPHIMURIUM, Strain/Indicator: TA1537, Metabolic Activation: NONE, Method: STANDARD PLATE) was “inactive; negative”. For the same compound, the mutagenic call (Test System: AMES SALMONELLA TYPHIMURIUM, Strain/Indicator: TA1537, Metabolic Activation: RAT, LIVER, S-9, AROCLOR 1254, Method: PREINCUBATION) was “inactive; negative”, the mutagenic call (Test System: AMES SALMONELLA TYPHIMURIUM, Strain/Indicator: TA1537, Metabolic Activation: RAT, LIVER, S-9, Method: PREINCUBATION) was “inactive; negative” and the mutagenic call (Test System: AMES SALMONELLA TYPHIMURIUM, Strain/Indicator: TA1537, Metabolic Activation: RAT, LIVER, S-9, Method: STANDARD PLATE) was “inactive; negative”. The mutagenic call (Test System: AMES SALMONELLA TYPHIMURIUM, Strain/Indicator: TA1538, Metabolic Activation: HAMSTER, LIVER, S-9, AROCLOR 1254, Method: PREINCUBATION) was “inactive; negative”, the mutagenic call (Test System: AMES SALMONELLA TYPHIMURIUM, Strain/Indicator: TA1538, Metabolic Activation: HAMSTER, LIVER, S-9, AROCLOR 1254, Method: STANDARD PLATE) was “inactive; negative” and the mutagenic call (Test System: AMES SALMONELLA TYPHIMURIUM, Strain/Indicator: TA1538, Metabolic Activation: HAMSTER, LIVER, S-9, Method: PREINCUBATION) was “inactive; negative”. The mutagenic call (Test System: AMES SALMONELLA TYPHIMURIUM, Strain/Indicator: TA1538, Metabolic Activation: HAMSTER, LIVER, S-9, Method: STANDARD PLATE) was “inactive; negative”, the mutagenic call (Test System: AMES SALMONELLA TYPHIMURIUM, Strain/Indicator: TA1538, Metabolic Activation: MOUSE, LIVER, S-9, AROCLOR 1254, Method: PREINCUBATION) was “inactive; negative” and the mutagenic call (Test System: AMES SALMONELLA TYPHIMURIUM, Strain/Indicator: TA1538, Metabolic Activation: MOUSE, LIVER, S-9, AROCLOR 1254, Method: STANDARD PLATE) was “inactive; negative”. The mutagenic call (Test System: AMES SALMONELLA TYPHIMURIUM, Strain/Indicator: TA1538, Metabolic Activation: MOUSE, LIVER, S-9, Method: PREINCUBATION) was “inactive; negative”, the mutagenic call (Test System: AMES SALMONELLA TYPHIMURIUM, Strain/Indicator: TA1538, Metabolic Activation: MOUSE, LIVER, S-9, Method: STANDARD PLATE) was “inactive; negative” and the mutagenic call (Test System: AMES SALMONELLA TYPHIMURIUM, Strain/Indicator: TA1538, Metabolic Activation: NONE, Method: PREINCUBATION) was “inactive; negative”. The mutagenic call (Test System: AMES SALMONELLA TYPHIMURIUM, Strain/Indicator: TA1538, Metabolic Activation: NONE, Method: STANDARD PLATE) was “inactive; negative”, the mutagenic call (Test System: AMES SALMONELLA TYPHIMURIUM, Strain/Indicator: TA1538, Metabolic Activation: RAT, LIVER, S-9, AROCLOR 1254, Method: PREINCUBATION) was “inactive; negative” and the mutagenic call (Test System: AMES SALMONELLA TYPHIMURIUM, Strain/Indicator: TA1538, Metabolic Activation: RAT, LIVER, S-9, Method: PREINCUBATION) was “inactive; negative”. For the same compound, the mutagenic call (Test System: AMES SALMONELLA TYPHIMURIUM, Strain/Indicator: TA1538, Metabolic Activation: RAT, LIVER, S-9, Method: STANDARD PLATE) was “inactive; negative”, the mutagenic call (Test System: E. COLI, Strain/Indicator: WP2 UVRA, Metabolic Activation: HAMSTER, LIVER, S-9, AROCLOR 1254, Method: STANDARD PLATE) was “inactive; negative” and the mutagenic call (Test System: E. COLI, Strain/Indicator: WP2 UVRA, Metabolic Activation: HAMSTER, LIVER, S-9, Method: PREINCUBATION) was “inactive; negative”. For the same compound, the mutagenic call (Test System: E. COLI, Strain/Indicator: WP2 UVRA, Metabolic Activation: MOUSE, LIVER, S-9, AROCLOR 1254, Method: STANDARD PLATE) was “inactive; negative”, the mutagenic call (Test System: E. COLI, Strain/Indicator: WP2 UVRA, Metabolic Activation: MOUSE, LIVER, S-9, Method: STANDARD PLATE) was “inactive; negative” and the mutagenic call (Test System: E. COLI, Strain/Indicator: WP2 UVRA, Metabolic Activation: NONE, Method: STANDARD PLATE) was “inactive; negative”. For the same compound, the mutagenic call (Test System: E. COLI, Strain/Indicator: WP2 UVRA, Metabolic Activation: RAT, LIVER, S-9, AROCLOR 1254, Method: PREINCUBATION) was “inactive; negative”, the mutagenic call (Test System: E. COLI, Strain/Indicator: WP2 UVRA, Metabolic Activation: RAT, LIVER, S-9, Method: PREINCUBATION) was “inactive; negative” and the mutagenic call (Test System: E. COLI, Strain/Indicator: WP2 UVRA, Metabolic Activation: RAT, LIVER, S-9, Method: STANDARD PLATE) was “inactive; negative”.
